Data on six compounds can be found in US20240261417A1, “SOS1 DEGRADING AGENT AND PREPARATION METHOD THEREFOR AND APPLICATION THEREOF” (SHANGHAI LEADINGTAC PHARMACEUTICAL CO. LTD., priority 2021, published 2024).

Assay [1] concerns the target T1, SOS1 protein (Homo sapiens, UniProt Q07889).
T1 sequence (Q07889 1-1333): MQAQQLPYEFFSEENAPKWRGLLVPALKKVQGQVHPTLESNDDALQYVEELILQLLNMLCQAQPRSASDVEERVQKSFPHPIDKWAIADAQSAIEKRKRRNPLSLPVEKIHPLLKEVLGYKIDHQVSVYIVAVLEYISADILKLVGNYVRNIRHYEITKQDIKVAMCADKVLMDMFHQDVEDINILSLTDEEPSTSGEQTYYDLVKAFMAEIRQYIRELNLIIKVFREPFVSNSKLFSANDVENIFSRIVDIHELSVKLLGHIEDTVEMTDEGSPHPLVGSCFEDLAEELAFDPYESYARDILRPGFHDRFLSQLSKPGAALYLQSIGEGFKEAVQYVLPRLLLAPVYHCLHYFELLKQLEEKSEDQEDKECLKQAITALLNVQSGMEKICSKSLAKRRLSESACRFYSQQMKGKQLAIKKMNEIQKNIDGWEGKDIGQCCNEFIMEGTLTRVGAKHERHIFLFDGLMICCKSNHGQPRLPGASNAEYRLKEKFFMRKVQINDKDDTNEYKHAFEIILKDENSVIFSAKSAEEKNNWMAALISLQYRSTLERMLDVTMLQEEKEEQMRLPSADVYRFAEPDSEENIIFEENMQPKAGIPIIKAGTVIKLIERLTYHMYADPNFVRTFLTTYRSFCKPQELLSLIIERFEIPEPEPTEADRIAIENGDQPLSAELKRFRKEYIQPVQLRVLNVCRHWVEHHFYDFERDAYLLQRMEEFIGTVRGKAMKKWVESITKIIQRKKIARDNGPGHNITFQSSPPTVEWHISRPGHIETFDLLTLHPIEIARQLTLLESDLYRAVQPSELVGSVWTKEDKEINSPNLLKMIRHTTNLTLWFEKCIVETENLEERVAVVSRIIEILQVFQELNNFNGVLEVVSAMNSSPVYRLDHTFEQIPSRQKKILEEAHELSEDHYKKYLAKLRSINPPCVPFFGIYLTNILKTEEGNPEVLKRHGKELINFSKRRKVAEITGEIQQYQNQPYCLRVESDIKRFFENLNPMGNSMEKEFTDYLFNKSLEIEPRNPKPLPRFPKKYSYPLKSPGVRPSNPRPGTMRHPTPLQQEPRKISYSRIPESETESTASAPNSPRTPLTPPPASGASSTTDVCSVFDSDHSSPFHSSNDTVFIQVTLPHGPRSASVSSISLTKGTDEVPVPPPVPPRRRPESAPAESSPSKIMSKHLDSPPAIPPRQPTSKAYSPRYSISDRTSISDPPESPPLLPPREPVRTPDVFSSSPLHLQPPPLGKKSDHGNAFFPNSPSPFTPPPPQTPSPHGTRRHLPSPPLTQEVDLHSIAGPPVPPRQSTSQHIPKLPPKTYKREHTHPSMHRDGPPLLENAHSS
Kind of assay: SOS1 degradation assay (Western blot), SW-620 cells. In kind it is cell-based. Also noted: host or cells: SW-620 (human cancer cell lines). The following applies: 24 h; for DC50: read-out: SW620 (G12V) DC50; for Dmax: read-out: SW620 (G12V) Dmax. On the procedure: (§1) The specific procedures were as follows:
(§2) 0.95 mL of cells were seeded into each well of a 24-well cell culture plate to achieve a cell density of 5×10^5 cells/well; the cell plate was incubated in an incubator at 37° C. with 5% CO2 overnight. Then 50 μL of the compound solution after dilution was added to each of the wells with the corresponding cells, so that the final concentration of the compound was in a range of 0.03-3000 nM. […] After dosing, the cell plate was incubated in an incubator at 37° C. with 5% CO2 for 24 h. […] After the plate was left to stand on ice for 30 min, the protein lysate in each well was transferred to a 1.5 mL centrifuge tube and centrifuged at 15000 g for 20 min at 4° C. The cell lysate supernatant after centrifugation was cryopreserved at −80° C. for testing and was used for determining the degradation level of the SOS1 protein by a WB method. The concentration of total protein in the cell lysate supernatant was determined using the BCA Protein Quantification Kit (Tiangen, PA115-02).
(§3) The concentration of total protein in the cell lysate was determined by BCA. The total protein was adjusted to 0.5 μg/μL with PBS and 5× SDS-PAGE protein loading buffer (Beyotime, P0015L), incubated in a water bath at 100° C. for 15 min, incubated in an ice bath on ice for 5 min, centrifuged at 14000 g for 1 min at 4° C., and mixed well as a loading sample for WB. Protein electrophoresis was performed on a precast gel (KeyGEN, KGMGO10W15) with a loading volume of 10 μL (total protein: 5 μg) using a Tris-MOPS-SDS running solution (Adamas, P1598253) at a constant voltage of 120 V for 55 min. After the electrophoresis, the protein on the gel strip was transferred to a PVDF membrane at a constant current of 250 mA for 65 min. After the membrane transfer, the membrane was incubated in 1× QuickBlock blocking buffer (Beyotime, P0235) for 30 min at room temperature. […] The protein map was subjected to gray value analysis by the chemiluminescence imaging system from Clinx. […] Then the degradation rate was calculated by comparing the gray correction value with the gray correction value of the control group. Then nonlinear curve fitting was performed by GraphPad Prism 8 in the logarithmic concentration-inhibition rate to obtain the DC50 and Dmax values of the compounds.
Background: Immunoblotting shows a protein as a band on a membrane.

Assay [2] deals with T1, SOS1 protein. Kind of assay: SOS1 degradation assay (Western blot), DLD-1 cells. Particulars: 24 h; for DC50: read-out: DLD-1 (G13D) DC50; for Dmax: read-out: DLD-1 (G13D) Dmax. On the set-up: host or cells: DLD-1 (human cancer cell lines). The format is cell-based. How it is done:
as §1, §2, §3

Bounds are passed on as bounds.

With `COc1cc2nc(C)nc(N[C@H](C)c3cc(N)cc(C(F)(F)F)c3)c2cc1[C@H]1CC[C@H](C(=O)N2CCN(CCC3CCC4(CC3)CCN(C(=O)c3ccc(Cl)c(N5CCC(=O)NC5=O)c3)CC4)CC2)CC1` [Example 1, 1-(5-(9-(2-(4-((1R,4R)-4-(4-(((R)-1-(3-amino-5-(trifluoromethyl)phenyl)ethyl)amino)-7-methoxy-2-methylquinazolin-6-yl)cyclohexane-1-carbonyl)piperazin-1-yl)ethyl)-3-azaspiro[5.5]undecane-3-carbonyl)-2-chlorophenyl)dihydropyrimidine-2,4(1H,3H)-dione], in assay [1], the DC50 was less than 0.05 µM and the Dmax is 80 to 100%. Besides, in assay [2], the DC50 is less than 0.05 µM and the Dmax lay in the range of 80 to 100%.

`COc1cc2nc(C)nc(N[C@H](C)c3cc(N)cc(C(F)(F)F)c3)c2cc1[C@H]1CC[C@H](C(=O)N2CCN(CC3CCC4(CC3)CCN(C(=O)c3ccc(Cl)c(N5CCC(=O)NC5=O)c3)CC4)CC2)CC1` [Example 2, 1-(5-(9-((4-((1R,4R)-4-(4-(((R)-1-(3-amino-5-(trifluoromethyl)phenyl)ethyl)amino)-7-methoxy-2-methylquinazolin-6-yl)cyclohexane-1-carbonyl)piperazin-1-yl)methyl)-3-azaspiro[5.5]undecane-3-carbonyl)-2-chlorophenyl)dihydropyrimidine-2,4(1H,3H)-dione]: in assay [1], the DC50 is less than 0.05 µM and the Dmax was 80 to 100%. For the same compound, in assay [2], the DC50 is less than 0.05 µM and the Dmax lay within 80 to 100%.

Regarding `COc1cc2nc(C)nc(N[C@H](C)c3cccc4c3CCS4(=O)=O)c2cc1[C@H]1CC[C@H](C(=O)N2CCN(CC3CCC4(CC3)CCN(C(=O)c3ccc(Cl)c(N5CCC(=O)NC5=O)c3)CC4)CC2)CC1` [Example 10, 1-(2-chloro-5-(9-((4-((1R,4R)-4-(4-(((R)-1-(1,1-dioxo-2,3-dihydrobenzo[b]thiophen-4-yl)ethyl)amino)-7-methoxy-2-methylquinazolin-6-yl)cyclohexane-1-carbonyl)piperazin-1-yl)methyl)-3-azaspiro[5.5]undecane-3-carbonyl)phenyl)dihydropyrimidine-2,4(1H,3H)-dione], in assay [1], the DC50 was less than 0.05 µM and the Dmax is 80 to 100%. Further, in assay [2], the DC50 is less than 0.05 µM and the Dmax lay within 80 to 100%.

On to `COc1cc2nc(C)nc(N[C@H](C)c3cc(N)cc(C(F)(F)F)c3)c2cc1[C@H]1CC[C@H](C(=O)N2CCC(CCOCC3CCN(C(=O)c4ccc(Cl)c(N5CCC(=O)NC5=O)c4)CC3)CC2)CC1` [Example 19, 1-(5-(4-((2-(1-((1R,4R)-4-(4-(((R)-1-(3-amino-5-(trifluoromethyl)phenyl)ethyl)amino)-7-methoxy-2-methylquinazolin-6-yl)cyclohexane-1-carbonyl)piperidin-4-yl)ethoxy)methyl)piperidine-1-carbonyl)-2-chlorophenyl)dihydropyrimidine-2,4(1H,3H)-dione], for which, in assay [1], the DC50 is less than 0.05 µM and the Dmax lay within 80 to 100%. Besides, in assay [2], the DC50 fell in the range of 0.05 to 0.1 µM and the Dmax is 80 to 100%.

With `COc1cc2nc(C)nc(N[C@H](C)c3cc(N)cc(C(F)(F)F)c3)c2cc1[C@H]1CC[C@H](C(=O)N2CCN(CCOCC3CCN(C(=O)c4ccc(Cl)c(N5CCC(=O)NC5=O)c4)CC3)CC2)CC1` [Example 33, 1-(5-(4-((2-(4-((1R,4R)-4-(4-(((R)-1-(3-amino-5-(trifluoromethyl)phenyl)ethyl)amino)-7-methoxy-2-methylquinazolin-6-yl)cyclohexane-1-carbonyl)piperazin-1-yl)ethoxy)methyl)piperidine-1-carbonyl)-2-chlorophenyl)dihydropyrimidine-2,4(1H,3H)-dione], the results for the DC50 in assay [1] and in assay [2] were less than 0.05 µM and 0.1 to 0.5 µM, respectively. The Dmax in assay [1] and in assay [2] was 80 to 100% each time.

On to `CNCc1ccccc1-c1csc([C@@H](C)Nc2nc(C)nc3cc(OC)c([C@H]4CC[C@H](C(=O)N5CCN(CC6CCC7(CC6)CCN(C(=O)c6ccc(OC)c(N8CCC(=O)NC8=O)c6)CC7)CC5)CC4)cc23)c1` [Example 73, 1-(2-methoxy-5-(9-((4-((1R,4R)-4-(7-methoxy-2-methyl-4-(((R)-1-(4-(2-((methylamino)methyl)phenyl)thien-2-yl)ethyl)amino)quinazolin-6-yl)cyclohexane-1-carbonyl)piperazin-1-yl)methyl)-3-azaspiro[5.5]undecane-3-carbonyl)phenyl)dihydropyrimidine-2,4(1H,3H)-dione], for which the DC50 in assay [1] was less than 0.05 µM; in assay [2] it was 0.05 to 0.1 µM. In addition, the Dmax in assay [1] and in assay [2] was 80 to 100% in each case.

What is called DC50 is the concentration at which degradation of the target reaches its halfway point. In general, Dmax refers to the largest share of the target that was removed.
